Reference: ChEMBL document CHEMBL1143849, “Two new dfr genes in trimethoprim-resistant integron-negative Escherichia coli isolates” (2007)

Legend:
Escherichia coli [1] = experiment: Antimicrobial activity against Escherichia coli U93 isolate by disk diffusion test
Escherichia coli [2] = experiment: Antimicrobial activity against Escherichia coli U21 isolate by disk diffusion test

MIC (Escherichia coli [1]): > 32 µg/mL
MIC (Escherichia coli [2]): > 32 µg/mL
SMILES: COc1cc(Cc2cnc(N)nc2N)cc(OC)c1OC [TRIMETHOPRIM]
